Legend:
[1] = target: T1, pseudo-kinase domain (JH2, amino-acids 536-812 with 3 surface mutations W659A, W777A, F794H) of human V617F mutant JAK2 (Homo sapiens, UniProt O60674, F794H/V617F/W659A/W777A); assay: JAK2 LanthaScreen JH2-V617F binding assay; conditions: 50 nM tracer, 1 hour at 25° C., read-out: JH2 BIND V617F IC50
T1 construct: pseudo-kinase domain (JH2, amino-acids 536-812 with 3 surface mutations W659A, W777A, F794H); His (C); Avi (biotinylated) (C); purchased BPS Bioscience 79498; host or cells: baculovirus expression system
Experimental: Example C. JAK2 LanthaScreen JH2-V617F Binding Assay
(§1) JAK2 JH2-V617F binding assay utilizes pseudo-kinase domain (JH2, amino-acids 536-812 with 3 surface mutations W659A, W777A, F794H) of human V617F mutant JAK2 expressed as C-terminal His-Avi-tagged, biotinylated protein in a baculovirus expression system (BPS Bioscience, Catalog #79498). The assay was conducted in black 384-well polystyrene plates in a final reaction volume of 20 μL. JAK2 JH2-V617F (0.26 nM) was incubated with compounds (100 nL serially diluted in DMSO) in the presence of 50 nM Fluorescent JAK2-JH2 Tracer (MedChem Express Catalog #HY-102055) and 0.25 nM Streptavidin-Tb cryptate (Cisbio Part #610SATLB) in assay buffer (50 mM Tris, pH=7.5, 10 mM MgCl2, 0.01% Brij-35, 0.1% BSA, 1 mM EGTA, 5% Glycerol and 5 mM DTT). Non-specific binding was accessed in the presence of 2 mM ATP. After incubation for 1 hour at 25° C., LanthaScreen signals were read on a PHERAstar FS plate reader (BMG LABTECH). Data was analyzed with IDBS XLfit and GraphPad Prism 5.0 software using a four parameter dose response curve to determine IC50 for each compound.

[2] = target: T2, catalytic domain (JH1, amino acids 826-1132) of human JAK2 (Homo sapiens, UniProt O60674); assay: JAK2 LanthaScreen JH1 binding assay; conditions: 50 nM tracer, 2 hours at 25° C., read-out: JH1 BIND IC50
T2 construct: catalytic domain (JH1, amino acids 826-1132) of human JAK2; FLAG (N); purchased Carna Biosciences 08-445-20N; host or cells: baculovirus expression system
Experimental: Example A. JAK2 LanthaScreen […] Binding Assay
JAK2 JH1 binding assay utilizes catalytic domain (JH1, amino acids 826-1132) of human JAK2 expressed as N-terminal FLAG-tagged, biotinylated protein in a baculovirus expression system (Carna Biosciences, Product #08-445-20N). The assay was conducted in black 384-well polystyrene plates in a final reaction volume of 20 μL. JAK2 JH1 (1.5 nM) was incubated with compounds (100 nL serially diluted in DMSO) in the presence of 50 nM fluorescent JAK2-JH1 tracer and 0.5 nM Streptavidin-Tb cryptate (Cisbio Part #610SATLB) in assay buffer (50 mM Tris, pH=7.5, 10 mM MgCl2, 0.01% Brij-35, 0.1% BSA, 1 mM EGTA, 5% Glycerol and 5 mM DTT). Non-specific binding was accessed in the presence of 2 mM ATP. After incubation for 2 hours at 25° C., LanthaScreen signals were read on a PHERAstar FS plate reader (BMG LABTECH). Data was analyzed with IDBS XLfit and GraphPad Prism 5.0 software using a four parameter dose response curve to determine IC50 for each compound.

[3] = target: T3, pseudo-kinase domain (JH2, amino-acids 536-812 with 3 surface mutations W659A, W777A, F794H) of human Wild Type JAK2 (Homo sapiens, UniProt O60674, F794H/W659A/W777A); assay: JAK2 LanthaScreen JH2-WT binding assay; conditions: 50 nM tracer, 1 hour at 25° C., read-out: JH2 BIND WT IC50
T3 construct: pseudo-kinase domain (JH2, amino-acids 536-812 with 3 surface mutations W659A, W777A, F794H); His (C); Avi (biotinylated) (C); purchased BPS Bioscience 79463; host or cells: baculovirus expression system
Experimental: Example B. JAK2 LanthaScreen JH2-WT Binding Assay
as §1, with “JH2-WT” for “JH2-V617F”, “Wild Type” for “V617F mutant”, “#79463).” for “#79498).”, “JH2-WT (0.145” for “JH2-V617F (0.26”

T1 sequence (O60674 536-812 V617F/W659A/W777A/F794H): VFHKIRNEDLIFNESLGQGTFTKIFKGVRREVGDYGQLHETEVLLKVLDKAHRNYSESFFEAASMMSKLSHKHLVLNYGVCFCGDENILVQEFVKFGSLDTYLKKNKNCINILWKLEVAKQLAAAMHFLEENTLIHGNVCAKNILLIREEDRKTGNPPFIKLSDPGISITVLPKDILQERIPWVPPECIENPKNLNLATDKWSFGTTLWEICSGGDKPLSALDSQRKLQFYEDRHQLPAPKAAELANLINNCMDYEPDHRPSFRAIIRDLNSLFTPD
T2 sequence (O60674 826-1132): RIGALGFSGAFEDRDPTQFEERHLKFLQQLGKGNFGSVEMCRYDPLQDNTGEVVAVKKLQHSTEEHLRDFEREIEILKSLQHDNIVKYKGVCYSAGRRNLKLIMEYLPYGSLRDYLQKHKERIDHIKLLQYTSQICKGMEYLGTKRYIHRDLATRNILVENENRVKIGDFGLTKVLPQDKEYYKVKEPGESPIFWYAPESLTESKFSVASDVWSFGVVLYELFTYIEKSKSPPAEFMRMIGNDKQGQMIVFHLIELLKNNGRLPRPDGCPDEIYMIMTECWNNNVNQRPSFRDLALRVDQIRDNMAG
T3 sequence (O60674 536-812 W659A/W777A/F794H): as the sequence (O60674 536-812 V617F/W659A/W777A/F794H) above, with F82V counted along it

Compound | IC50 [1] | IC50 [2] | IC50 [3]
CC(C)n1ncc2cc(-c3c(-c4cnn(C)c4)[nH]c4ncc5c(c34)N([C@H]3CC[C@@H]3NS(C)(=O)=O)C(=O)NC5)ccc21 (racemic) [Example 7, N-(trans-2-(9-(1-Isopropyl-1H-indazol-5-yl)-8-(1-methyl-1H-pyrazol-4-yl)-2-oxo-2,3,4,7-tetrahydro-1H-pyrrolo[3′,2′:5,6]pyrido[4,3-d]pyrimidin-1-yl)cyclobutyl) methan esulfonamide] | 10 to 100 nM | > 1000 nM | 10 to 100 nM
CC(C)n1ncc2cc(-c3c(-c4cnn(C)c4)[nH]c4ncc5c(c34)N([C@H]3C[C@@H](NS(C)(=O)=O)C3)C(=O)NC5)ccc21 [Example 6, N-((1s,3s)-3-(9-(1-Isopropyl-1H-indazol-5-yl)-8-(1-methyl-1H-pyrazol-4-yl)-2-oxo-2,3,4,7-tetrahydro-1H-pyrrolo[3′,2′:5,6]pyrido[4,3-d]pyrimidin-1-yl)cyclobutyl) methanesulfonamide] | 10 to 100 nM | 100 to 500 nM | ≤ 10 nM
CC(C)n1ncc2cc(-c3c(-c4cnn(C)c4)[nH]c4ncc5c(c34)N([C@H]3C[C@H](NS(C)(=O)=O)C3)C(=O)NC5)ccc21 [Example 3, N-((1r,3r)-3-(9-(1-Isopropyl-1H-indazol-5-yl)-8-(1-methyl-1H-pyrazol-4-yl)-2-oxo-2,3,4,7-tetrahydro-1H-pyrrolo[3′,2′:5,6]pyrido[4,3-d]pyrimidin-1-yl)cyclobutyl) methan esulfonamide] | ≤ 10 nM | 10 to 100 nM | ≤ 10 nM
CC(C)n1ncc2cc(-c3c(-c4cnn(C)c4)[nH]c4ncc5c(c34)N([C@H]3C[C@@H](NC(=O)Cc4ccn(C)n4)C3)C(=O)NC5)ccc21 [Example 21, N-((1s,3s)-3-(9-(1-Isopropyl-1H-indazol-5-yl)-8-(1-methyl-1H-pyrazol-4-yl)-2-oxo-2,3,4,7-tetrahydro-1H-pyrrolo[3′,2′:5,6]pyrido[4,3-d]pyrimidin-1-yl)cyclobutyl)-2-(1-methyl-1H-pyrazol-3-yl)acetamide] | 10 to 100 nM | 500 to 1000 nM | 10 to 100 nM
CC(C)n1ncc2cc(-c3c(-c4cnn(C)c4)[nH]c4ncc5c(c34)N([C@@H]3CC[C@@H](NC(=O)C4CC4)C3)C(=O)NC5)ccc21 [Example 11, N-((1R,3R)-3-(9-(1-Isopropyl-1H-indazol-5-yl)-8-(1-methyl-1H-pyrazol-4-yl)-2-oxo-2,3,4,7-tetrahydro-1H-pyrrolo[3′,2′:5,6]pyrido[4,3-d]pyrimidin-1-yl)cyclopentyl) cyclopropanecarboxamide] | 10 to 100 nM | > 1000 nM | 10 to 100 nM
COC(=O)N[C@@H]1CC[C@@H](n2c(=O)nc(OC)c3cnc4[nH]c(-c5cnn(C)c5)c(-c5ccc6c(cnn6C(C)C)c5)c4c32)C1 [Example 40, Methyl ((1R,3R)-3-(9-(1-isopropyl-1H-indazol-5-yl)-4-methoxy-8-(1-methyl-1H-pyrazol-4-yl)-2-oxo-2,7-dihydro-1H-pyrrolo[3′,2′:5,6]pyrido[4,3-d]pyrimidin-1-yl)cyclopentyl)carbamate] | 100 to 500 nM | > 1000 nM | 10 to 100 nM
COC(=O)N[C@@H]1CC[C@@H](N2C(=O)NCc3cnc4[nH]c(-c5cnn(C)c5)c(-c5ccc(OC)cc5)c4c32)C1 [Example 28, Methyl ((1R,3R)-3-(9-(4-methoxyphenyl)-8-(1-methyl-1H-pyrazol-4-yl)-2-oxo-2,3,4,7-tetrahydro-1H-pyrrolo[3′,2′:5,6]pyrido[4,3-d]pyrimidin-1-yl)cyclopentyl)carbamate] | 10 to 100 nM | > 1000 nM | 10 to 100 nM
CC(C)n1ncc2cc(-c3c(-c4cnn(C)c4)[nH]c4ncc5c(c34)N([C@@H]3CC[C@@H](NS(C)(=O)=O)C3)C(=O)NC5)ccc21 [Example 10, N-((1R,3R)-3-(9-(1-Isopropyl-1H-indazol-5-yl)-8-(1-methyl-1H-pyrazol-4-yl)-2-oxo-2,3,4,7-tetrahydro-1H-pyrrolo[3′,2′:5,6]pyrido[4,3-d]pyrimidin-1-yl)cyclopentyl) methanesulfonamide] | 100 to 500 nM | > 1000 nM | 10 to 100 nM
CNc1nc(=O)n([C@@H]2CC[C@@H](NC(=O)OC)C2)c2c1cnc1[nH]c(-c3cnn(C)c3)c(-c3ccc4c(cnn4C(C)C)c3)c12 [Example 42, Methyl ((1R,3R)-3-(9-(1-isopropyl-1H-indazol-5-yl)-8-(1-methyl-1H-pyrazol-4-yl)-4-(methylamino)-2-oxo-2,7-dihydro-1H-pyrrolo[3′,2′:5,6]pyrido[4,3-d]pyrimidin-1-yl)cyclopentyl)carbamate] | 10 to 100 nM | > 1000 nM | 10 to 100 nM
COCc1ccc(-c2c(-c3cnn(C)c3)[nH]c3ncc4c(c23)N([C@@H]2CC[C@@H](NC(=O)OC)C2)C(=O)NC4)cc1 [Example 32, Methyl ((1R,3R)-3-(9-(4-(methoxymethyl)phenyl)-8-(1-methyl-1H-pyrazol-4-yl)-2-oxo-2,3,4,7-tetrahydro-1H-pyrrolo[3′,2′:5,6]pyrido[4,3-d]pyrimidin-1-yl)cyclopentyl) carbamate] | 10 to 100 nM | 500 to 1000 nM | 10 to 100 nM
CC(=O)N[C@@H]1CC[C@@H](N2C(=O)NCc3cnc4[nH]c(-c5cnn(C)c5)c(-c5ccc6c(cnn6C(C)C)c5)c4c32)C1 [Example 9, N-((1R,3R)-3-(9-(1-Isopropyl-1H-indazol-5-yl)-8-(1-methyl-1H-pyrazol-4-yl)-2-oxo-2,3,4,7-tetrahydro-1H-pyrrolo[3′,2′:5,6]pyrido[4,3-d]pyrimidin-1-yl)cyclopentyl) acetamide] | 10 to 100 nM | > 1000 nM | 10 to 100 nM
CC(C)n1ncc2cc(-c3c(-c4cnn(C)c4)[nH]c4ncc5c(c34)N(C3CCN(S(C)(=O)=O)CC3)C(=O)NC5)ccc21 [Example 16, 9-(1-Isopropyl-1H-indazol-5-yl)-8-(1-methyl-1H-pyrazol-4-yl)-1-(1-(methylsulfonyl)piperidin-4-yl)-1,3,4,7-tetrahydro-2H-pyrrolo [3′,2′:5,6]pyrido[4,3-d]pyrimidin-2-one] | 10 to 100 nM | > 1000 nM | 10 to 100 nM
COC(=O)N[C@@H]1CC[C@@H](N2C(=O)NCc3cnc4[nH]c(-c5cnn(C)c5)c(-c5ccc6c(cnn6C)c5)c4c32)C1 [Example 29, Methyl ((1R,3R)-3-(9-(1-methyl-1H-indazol-5-yl)-8-(1-methyl-1H-pyrazol-4-yl)-2-oxo-2,3,4,7-tetrahydro-1H-pyrrolo[3′,2′:5,6]pyrido[4,3-d]pyrimidin-1-yl)cyclopentyl) carbamate] | 10 to 100 nM | > 1000 nM | ≤ 10 nM
